# Laboratory results as given in patent publication US20250136606A1, “MODULATORS OF TRPML, THEIR COMPOSITIONS AND METHODS OF USE” (Caraway Therapeutics, Inc., priority 2021, published 2025).
# Like-named read-outs stand apart in the source and are kept apart here.
# Columns and labels:
# Type in all cases: cell-based
# [1] = target: TRPML1 (Homo sapiens, UniProt Q9GZU1); test: Fluorescent TRPML1 assay (Fluo4-AM calcium fluorescence in doxycycline-induced HEK-293 Trex cells)
# Procedure, shortened: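 EC50 values come from non-linear regression of percent activity, normalized to on-plate positive and negative controls, with fluorescence read at 480 nm excitation and 540 nm emission. Fluo4-AM-loaded (1 µM) doxycycline-induced HEK-293 Trex cells expressing mutated human TRPML1 were exposed in 10 mM calcium Ringer's to 6 nM–20 µM compound, in triplicate.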
# [2] = target: T1, TRPML2 (Homo sapiens, UniProt Q8IZK6); test: Fluorescent TRPML2 assay (performed as for TRPML1, substituting the TRPML2 subtype)
# T1 construct: expressed in transfected cells
# T1 sequence (Q8IZK6 1-566): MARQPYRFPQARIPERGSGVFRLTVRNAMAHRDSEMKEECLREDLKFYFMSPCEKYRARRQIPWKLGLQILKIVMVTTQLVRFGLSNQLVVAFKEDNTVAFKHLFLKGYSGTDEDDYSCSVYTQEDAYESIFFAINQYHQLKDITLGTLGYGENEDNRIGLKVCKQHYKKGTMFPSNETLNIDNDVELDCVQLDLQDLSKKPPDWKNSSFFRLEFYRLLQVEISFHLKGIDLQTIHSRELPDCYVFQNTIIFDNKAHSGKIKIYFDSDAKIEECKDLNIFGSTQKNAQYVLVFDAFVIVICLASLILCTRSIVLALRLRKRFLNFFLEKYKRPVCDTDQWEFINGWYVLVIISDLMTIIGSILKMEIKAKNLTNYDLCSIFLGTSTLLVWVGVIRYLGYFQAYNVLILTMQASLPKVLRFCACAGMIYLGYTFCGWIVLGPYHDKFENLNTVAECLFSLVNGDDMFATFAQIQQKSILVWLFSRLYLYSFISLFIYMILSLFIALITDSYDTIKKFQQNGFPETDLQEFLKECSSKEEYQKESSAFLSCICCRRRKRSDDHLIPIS
# Procedure, shortened: (§1)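 Compound series (final 6 nM-20 μM, half-log, triplicate) were added to Fluo4-AM-loaded HEK-293 Trex cells in 10 mM calcium Ringer's, expressing the human TRPML subtype after doxycycline 0.5 ug/mL induction. Percent activity versus positive/negative controls from 480/540 nm fluorescence; EC50 by non-linear regression.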
# [3] = target: T2, TRPML3 (Homo sapiens, UniProt Q8TDD5); test: Fluorescent TRPML3 assay (performed as for TRPML1, substituting the TRPML3 subtype)
# T2 construct: expressed in transfected cells
# T2 sequence (Q8TDD5 1-553): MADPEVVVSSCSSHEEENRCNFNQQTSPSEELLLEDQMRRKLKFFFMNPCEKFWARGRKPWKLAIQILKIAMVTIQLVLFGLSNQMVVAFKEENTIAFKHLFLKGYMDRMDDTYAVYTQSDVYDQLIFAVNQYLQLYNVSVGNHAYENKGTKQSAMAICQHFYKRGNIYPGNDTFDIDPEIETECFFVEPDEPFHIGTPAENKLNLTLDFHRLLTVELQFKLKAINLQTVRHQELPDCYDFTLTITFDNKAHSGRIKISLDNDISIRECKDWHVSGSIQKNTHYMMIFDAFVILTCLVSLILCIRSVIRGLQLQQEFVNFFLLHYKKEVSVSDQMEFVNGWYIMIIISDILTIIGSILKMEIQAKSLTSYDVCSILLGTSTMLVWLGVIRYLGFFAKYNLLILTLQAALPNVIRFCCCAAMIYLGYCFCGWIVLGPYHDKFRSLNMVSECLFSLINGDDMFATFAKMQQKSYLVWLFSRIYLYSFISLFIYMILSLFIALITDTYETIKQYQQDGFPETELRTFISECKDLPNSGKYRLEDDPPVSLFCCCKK
# Procedure, shortened: as §1
# Chain of TRPML1 (Q9GZU1 whole entry L15A/L16A/L577A/L578A, form open): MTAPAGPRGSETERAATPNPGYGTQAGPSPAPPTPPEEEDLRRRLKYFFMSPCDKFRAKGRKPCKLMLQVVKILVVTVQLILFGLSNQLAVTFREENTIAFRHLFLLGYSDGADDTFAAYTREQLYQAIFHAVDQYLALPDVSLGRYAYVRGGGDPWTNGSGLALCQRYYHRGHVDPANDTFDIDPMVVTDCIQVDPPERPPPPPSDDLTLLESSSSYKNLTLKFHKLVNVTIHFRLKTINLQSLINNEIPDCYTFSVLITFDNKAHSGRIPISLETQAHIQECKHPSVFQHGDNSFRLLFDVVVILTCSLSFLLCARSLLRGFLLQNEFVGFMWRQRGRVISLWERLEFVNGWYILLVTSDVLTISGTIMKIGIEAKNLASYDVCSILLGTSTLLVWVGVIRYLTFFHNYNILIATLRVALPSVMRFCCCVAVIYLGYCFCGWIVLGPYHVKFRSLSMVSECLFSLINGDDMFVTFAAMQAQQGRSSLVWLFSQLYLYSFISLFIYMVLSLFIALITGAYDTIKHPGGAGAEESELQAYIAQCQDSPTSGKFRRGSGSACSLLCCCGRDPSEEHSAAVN
compound,measurement,setting,value
"C[C@H]1CN(C(=O)OC(C)(C)C)CCN1c1nccc2c1c(C1(C)CC1)cn2-c1cc(C#N)ccn1 [Compound 612, tert-butyl (S)-4-(1-(4-cyanopyridin-2-yl)-3-(1-methylcyclopropyl)-1H-pyrrolo[3,2-c]pyridin-4-yl)-3-methylpiperazine-1-carboxylate]",EC50,[1],< 100 nM
same,EC50,[2],500 to 2000 nM
same,EC50,[3],100 to 500 nM
"[2H]C([2H])([2H])[C@@H]1CN(c2ncnc3c2c(C(F)(F)F)cn3-c2cc(C#N)ccn2)[C@@H](C)CN1C(=O)OC(C)(C)C [Compound 707, tert-butyl (2R,5S)-4-(7-(4-cyanopyridin-2-yl)-5-(trifluoromethyl)-7H-pyrrolo[2,3-d]pyrimidin-4-yl)-5-methyl-2-(methyl-d3)piperazine-1-carboxylate]",EC50,[1],< 100 nM
same,EC50,[2],< 100 nM
same,EC50,[3],< 100 nM
"C[C@@H]1CN(c2ncnc3c2c(-c2cnccn2)cn3-c2cc(F)cc(F)c2)CCN1C(=O)OC(C)(C)C [Compound 233, tert-butyl (R)-4-(7-(3,5-difluorophenyl)-5-(pyrazin-2-yl)-7H-pyrrolo[2,3-d]pyrimidin-4-yl)-2-methylpiperazine-1-carboxylate]",EC50,[1]; fluorescent calcium assay,500 to 2000 nM
same,EC50,[2]; fluorescent calcium assay,500 to 2000 nM
same,EC50,[3]; fluorescent calcium assay,100 to 500 nM
"C[C@H]1CN(C(=O)OC(C)(C)C)CCN1c1ncnc2c1c(C1CC1)cn2-c1cccc(F)c1 [Compound 127, tert-butyl (S)-4-(5-cyclopropyl-7-(3-fluorophenyl)-7H-pyrrolo[2,3-d]pyrimidin-4-yl)-3-methylpiperazine-1-carboxylate]",EC50,[1]; fluorescent calcium assay,< 100 nM
same,EC50,[2]; fluorescent calcium assay,100 to 500 nM
same,EC50,[3]; fluorescent calcium assay,< 100 nM
"CCc1cncc(-n2cc(C3CC3)c3c(N4CCN(C(=O)OC(C)(C)C)CC4)ncnc32)c1 [Compound 166, tert-butyl 4-(5-cyclopropyl-7-(5-ethylpyridin-3-yl)-7H-pyrrolo[2,3-d]pyrimidin-4-yl)piperazine-1-carboxylate]",EC50,[1]; fluorescent calcium assay,100 to 500 nM
same,EC50,[2]; fluorescent calcium assay,500 to 2000 nM
same,EC50,[3]; fluorescent calcium assay,100 to 500 nM
"C[C@@H]1CN(c2ncnc3c2c(N2CCCC2)cn3-c2cc(C#N)ccn2)CCN1C(=O)OC(C)(C)C [Compound 416, tert-butyl (R)-4-(7-(4-cyanopyridin-2-yl)-5-(pyrrolidin-1-yl)-7H-pyrrolo[2,3-d]pyrimidin-4-yl)-2-methylpiperazine-1-carboxylate]",EC50,[1]; fluorescent calcium assay,< 100 nM
same,EC50,[2]; fluorescent calcium assay,< 100 nM
same,EC50,[3]; fluorescent calcium assay,< 100 nM
"CCc1cn(-c2cc(F)ccn2)c2ncnc(N3C[C@@H](C)N(C(=O)OC(C)(C)C)C[C@@H]3C)c12 [Compound 697, tert-butyl (2R,5S)-4-(5-ethyl-7-(4-fluoropyridin-2-yl)-7H-pyrrolo[2,3-d]pyrimidin-4-yl)-2,5-dimethylpiperazine-1-carboxylate]",EC50,[1],< 100 nM
same,EC50,[2],< 100 nM
same,EC50,[3],< 100 nM
"CCc1ccnc(-n2cc(C3CC3)c3c(N4C[C@@H](C)N(C(=O)OC(C)(C)C)C[C@@H]4C)ncnc32)c1 [Compound 717, tert-butyl (2R,5S)-4-(5-cyclopropyl-7-(4-ethylpyridin-2-yl)-7H-pyrrolo[2,3-d]pyrimidin-4-yl)-2,5-dimethylpiperazine-1-carboxylate]",EC50,[1],< 100 nM
same,EC50,[2],100 to 500 nM
same,EC50,[3],< 100 nM
"C[C@H]1CN(C(=O)OC(C)(C)C)CCN1c1ncnc2c1c(N1CCCC1)cn2[C@@H]1C[C@@H]2CC[C@H]1C2 [Compound 406, tert-butyl-(S)-4-(7-((1S,2R,4R)-bicyclo[2.2.1]heptan-2-yl)-5-(pyrrolidin-1-yl)-7H-pyrrolo[2,3-d]pyrimidin-4-yl)-3-methylpiperazine-1-carboxylate]",EC50,[1]; fluorescent calcium assay,100 to 500 nM
same,EC50,[2]; fluorescent calcium assay,500 to 2000 nM
same,EC50,[3]; fluorescent calcium assay,500 to 2000 nM
"C[C@@H]1CN(c2ncnc3c2c(-c2cnccn2)cn3-c2cc(F)cc(Cl)c2)CCN1C(=O)OC(C)(C)C [Compound 223, tert-butyl (R)-4-(7-(3-chloro-5-fluorophenyl)-5-(pyrazin-2-yl)-7H-pyrrolo[2,3-d]pyrimidin-4-yl)-2-methylpiperazine-1-carboxylate]",EC50,[1]; fluorescent calcium assay,100 to 500 nM
same,EC50,[2]; fluorescent calcium assay,500 to 2000 nM
same,EC50,[3]; fluorescent calcium assay,100 to 500 nM
C[C@H]1CN(C(=O)OC(C)(C)C)CCN1c1ncnc2c1c(C(F)(F)F)cn2-c1cc(F)cc(F)c1 [Compound 495],EC50,[1],< 100 nM
same,EC50,[2],100 to 500 nM
same,EC50,[3],< 100 nM
"C[C@H]1CN(C(=O)OC(C)(C)C)CCN1c1ncnc2c1c(-c1ccccn1)cn2-c1cc(C#N)ccn1 [Compound 352, tert-butyl (S)-4-(7-(4-cyanopyridin-2-yl)-5-(pyridin-2-yl)-7H-pyrrolo[2,3-d]pyrimidin-4-yl)-3-methylpiperazine-1-carboxylate]",EC50,[1]; fluorescent calcium assay,< 100 nM
same,EC50,[2]; fluorescent calcium assay,< 100 nM
same,EC50,[3]; fluorescent calcium assay,< 100 nM
"C[C@@H]1CN(c2ncnc3c2c(-c2ccccc2F)cn3-c2cnn(C)c2)[C@@H](C)CN1C(=O)OC(C)(C)C [Compound 176, tert-butyl (2R,5S)-4-(5-(2-fluorophenyl)-7-(1-methyl-1H-pyrazol-4-yl)-7H-pyrrolo[2,3-d]pyrimidin-4-yl)-2,5-dimethylpiperazine-1-carboxylate]",EC50,[1]; fluorescent calcium assay,100 to 500 nM
same,EC50,[2]; fluorescent calcium assay,500 to 2000 nM
same,EC50,[3]; fluorescent calcium assay,100 to 500 nM
"C[C@H]1CN(C(=O)OC(C)(C)C)CCN1c1ncnc2c1c(-c1nccnc1C#N)cn2-c1cccc(Cl)c1 [Compound 274, tert-butyl (S)-4-(7-(3-chlorophenyl)-5-(3-cyanopyrazin-2-yl)-7H-pyrrolo[2,3-d]pyrimidin-4-yl)-3-methylpiperazine-1-carboxylate]",EC50,[1]; fluorescent calcium assay,100 to 500 nM
same,EC50,[2]; fluorescent calcium assay,500 to 2000 nM
same,EC50,[3]; fluorescent calcium assay,100 to 500 nM
"C[C@@H]1CN(c2nccc3c2c(C(F)(F)F)cn3-c2cc(C#N)ccn2)[C@@H](C)CN1C(=O)OC(C)(C)C [Compound 620, tert-butyl (2R,5S)-4-(1-(4-cyanopyridin-2-yl)-3-(trifluoromethyl)-1H-pyrrolo[3,2-c]pyridin-4-yl)-2,5-dimethylpiperazine-1-carboxylate]",EC50,[1],< 100 nM
same,EC50,[2],100 to 500 nM
same,EC50,[3],< 100 nM
"C[C@@H]1CN(c2ncnc3c2c(C2CC2)cn3-c2cc(F)cc(Cl)c2)CCN1C(=O)OC(C)(C)C [Compound 123, tert-butyl (R)-4-(7-(3-chloro-5-fluorophenyl)-5-cyclopropyl-7H-pyrrolo[2,3-d]pyrimidin-4-yl)-2-methylpiperazine-1-carboxylate]",EC50,[1]; fluorescent calcium assay,< 100 nM
same,EC50,[2]; fluorescent calcium assay,100 to 500 nM
same,EC50,[3]; fluorescent calcium assay,< 100 nM
"C[C@H]1CN(C(=O)OC(C)(C)C)CCN1c1ncnc2c1c(C1CC1)cn2C1CCC1 [Compound 398, tert-butyl (S)-4-(7-cyclobutyl-5-cyclopropyl-7H-pyrrolo[2,3-d]pyrimidin-4-yl)-3-methylpiperazine-1-carboxylate]",EC50,[1]; fluorescent calcium assay,< 100 nM
same,EC50,[2]; fluorescent calcium assay,100 to 500 nM
same,EC50,[3]; fluorescent calcium assay,100 to 500 nM
"Cc1cn(-c2ccc(F)cc2)c2ncnc(N3CCN(C(=O)OC(C)(C)C)C[C@@H]3C)c12 [Compound 692, tert-butyl (S)-4-(7-(4-fluorophenyl)-5-methyl-7H-pyrrolo[2,3-d]pyrimidin-4-yl)-3-methylpiperazine-1-carboxylate]",EC50,[1],< 100 nM
same,EC50,[2],< 100 nM
same,EC50,[3],< 100 nM
"Cc1nccnc1-c1cn(-c2ccc(F)c(F)c2)c2ncnc(N3C[C@@H](C)N(C(=O)OC(C)(C)C)C[C@@H]3C)c12 [Compound 180, tert-butyl (2R,5S)-4-(7-(3,4-difluorophenyl)-5-(3-methylpyrazin-2-yl)-7H-pyrrolo[2,3-d]pyrimidin-4-yl)-2,5-dimethylpiperazine-1-carboxylate]",EC50,[1]; fluorescent calcium assay,100 to 500 nM
same,EC50,[2]; fluorescent calcium assay,500 to 2000 nM
same,EC50,[3]; fluorescent calcium assay,< 100 nM
"CC(C)(CF)OC(=O)N1CCN(c2ncnc3c2c(-c2ccccc2F)cn3-c2cccnc2)CC1 [Compound 172, 1-fluoro-2-methylpropan-2-yl 4-(5-(2-fluorophenyl)-7-(pyridin-3-yl)-7H-pyrrolo[2,3-d]pyrimidin-4-yl)piperazine-1-carboxylate]",EC50,[1]; fluorescent calcium assay,500 to 2000 nM
same,EC50,[2]; fluorescent calcium assay,> 2000 nM
same,EC50,[3]; fluorescent calcium assay,500 to 2000 nM
